# Where two headings read alike, the source gives them in different places. Marks after values point to notes of the source that are not given here.
# Assays:
# mGluR5 [1] = molecular target: T1, mGluR5 (Homo sapiens, UniProt P41594); assay: Inhibitory concentration (IC50) on mGluR5; format: cell-based
# T1 construct: host or cells: HEK293 (human embryonic kidney) cells stably expressing m-GluR5
# [2] = rat
# CYP2C9 = CYP2C9 (Homo sapiens, UniProt P11712); assay: CYP inhibitory rate, CYP2C9; format: in vitro ADME
# Sequence of CYP2C9 (P11712 whole entry): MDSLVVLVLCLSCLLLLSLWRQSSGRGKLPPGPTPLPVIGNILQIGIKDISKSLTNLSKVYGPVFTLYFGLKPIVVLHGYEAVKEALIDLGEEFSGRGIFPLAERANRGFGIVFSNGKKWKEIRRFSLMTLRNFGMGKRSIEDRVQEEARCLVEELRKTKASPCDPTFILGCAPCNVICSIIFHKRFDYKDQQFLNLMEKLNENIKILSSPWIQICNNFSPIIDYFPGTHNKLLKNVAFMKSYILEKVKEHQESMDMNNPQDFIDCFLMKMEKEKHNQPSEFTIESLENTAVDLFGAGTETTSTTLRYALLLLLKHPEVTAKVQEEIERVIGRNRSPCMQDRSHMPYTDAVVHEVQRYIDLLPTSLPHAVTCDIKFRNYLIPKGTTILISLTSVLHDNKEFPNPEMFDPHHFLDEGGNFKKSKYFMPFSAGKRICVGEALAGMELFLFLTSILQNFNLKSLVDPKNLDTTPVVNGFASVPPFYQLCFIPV
# CYP3A4 = CYP3A4 (Homo sapiens, UniProt P08684); assay: CYP inhibitory rate, CYP3A4; format: in vitro ADME
# Sequence of CYP3A4 (P08684 whole entry): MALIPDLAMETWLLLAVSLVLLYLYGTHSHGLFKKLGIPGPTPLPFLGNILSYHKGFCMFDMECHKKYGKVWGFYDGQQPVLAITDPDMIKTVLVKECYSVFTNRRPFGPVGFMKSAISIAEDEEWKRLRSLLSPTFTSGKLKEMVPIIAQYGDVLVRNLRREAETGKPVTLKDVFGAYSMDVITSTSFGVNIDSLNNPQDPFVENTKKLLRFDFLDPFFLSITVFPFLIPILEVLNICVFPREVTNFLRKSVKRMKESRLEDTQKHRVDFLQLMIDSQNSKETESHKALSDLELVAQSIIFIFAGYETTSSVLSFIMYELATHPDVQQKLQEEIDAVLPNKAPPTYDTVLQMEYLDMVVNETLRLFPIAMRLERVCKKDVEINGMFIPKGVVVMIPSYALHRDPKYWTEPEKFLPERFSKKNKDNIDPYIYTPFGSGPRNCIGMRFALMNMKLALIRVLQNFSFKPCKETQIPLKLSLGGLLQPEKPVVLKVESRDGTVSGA
# [3] = HLM (human liver microsomal) stability; format: in vitro ADME; conditions: human liver microsomes
# hERG = hERG (Homo sapiens, UniProt Q12809); assay: Inhibitory concentration (IC50) on hERG
# Sequence of hERG (Q12809 whole entry): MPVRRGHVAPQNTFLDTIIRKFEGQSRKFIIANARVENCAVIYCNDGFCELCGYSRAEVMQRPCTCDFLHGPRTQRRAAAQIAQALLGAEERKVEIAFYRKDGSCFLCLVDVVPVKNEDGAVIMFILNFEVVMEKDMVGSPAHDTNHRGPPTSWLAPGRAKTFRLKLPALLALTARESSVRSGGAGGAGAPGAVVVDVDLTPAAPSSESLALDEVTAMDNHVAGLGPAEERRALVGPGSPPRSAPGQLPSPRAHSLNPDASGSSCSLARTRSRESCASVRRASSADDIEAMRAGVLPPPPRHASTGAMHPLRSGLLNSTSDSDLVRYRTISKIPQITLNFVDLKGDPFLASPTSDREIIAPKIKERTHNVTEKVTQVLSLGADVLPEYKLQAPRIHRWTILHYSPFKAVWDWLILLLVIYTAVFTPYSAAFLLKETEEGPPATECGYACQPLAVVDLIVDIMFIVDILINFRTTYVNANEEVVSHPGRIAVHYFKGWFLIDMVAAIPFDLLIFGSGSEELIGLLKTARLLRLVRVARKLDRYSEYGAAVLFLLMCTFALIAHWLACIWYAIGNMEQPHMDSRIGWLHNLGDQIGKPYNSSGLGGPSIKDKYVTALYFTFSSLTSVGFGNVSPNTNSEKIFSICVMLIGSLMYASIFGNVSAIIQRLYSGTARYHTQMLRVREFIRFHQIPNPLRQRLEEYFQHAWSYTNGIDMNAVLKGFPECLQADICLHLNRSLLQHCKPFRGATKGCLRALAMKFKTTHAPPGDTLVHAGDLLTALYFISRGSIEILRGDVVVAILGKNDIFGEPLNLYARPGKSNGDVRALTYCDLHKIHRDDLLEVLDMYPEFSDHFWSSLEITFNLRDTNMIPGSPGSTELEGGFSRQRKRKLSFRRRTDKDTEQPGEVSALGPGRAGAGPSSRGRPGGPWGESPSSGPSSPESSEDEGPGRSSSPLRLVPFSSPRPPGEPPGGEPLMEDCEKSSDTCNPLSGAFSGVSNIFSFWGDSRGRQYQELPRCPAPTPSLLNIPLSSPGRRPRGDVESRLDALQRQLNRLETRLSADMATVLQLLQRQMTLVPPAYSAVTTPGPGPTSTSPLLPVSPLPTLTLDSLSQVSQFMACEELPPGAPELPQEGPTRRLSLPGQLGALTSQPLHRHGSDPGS
# CYP2D6 = CYP2D6 (Homo sapiens, UniProt P10635); assay: CYP inhibitory rate, CYP2D6; format: in vitro ADME
# Sequence of CYP2D6 (P10635 whole entry): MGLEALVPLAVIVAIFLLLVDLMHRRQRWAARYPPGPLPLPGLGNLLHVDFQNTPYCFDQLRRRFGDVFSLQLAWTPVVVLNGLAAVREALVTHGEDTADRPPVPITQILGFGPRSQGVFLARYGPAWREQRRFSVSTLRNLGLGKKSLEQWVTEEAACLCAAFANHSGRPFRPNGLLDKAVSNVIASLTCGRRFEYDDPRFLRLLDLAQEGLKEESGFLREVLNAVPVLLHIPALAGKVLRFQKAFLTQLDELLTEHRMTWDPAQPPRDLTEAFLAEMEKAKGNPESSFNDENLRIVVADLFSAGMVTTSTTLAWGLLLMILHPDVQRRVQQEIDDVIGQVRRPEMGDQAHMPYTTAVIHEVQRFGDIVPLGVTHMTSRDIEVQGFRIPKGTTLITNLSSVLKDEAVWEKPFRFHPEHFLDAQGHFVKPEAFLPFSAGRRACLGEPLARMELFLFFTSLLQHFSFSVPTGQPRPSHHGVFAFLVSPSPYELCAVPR
# [4] = tested on: SNL (spinal nerve ligation) neuropathic pain models; assay: In vivo test in SNL (spinal nerve ligation) neuropathic pain models; conditions: orally administered, SNL model, compared with gabapentin as control (FIG. 1 C, D)
# From the text: The compound prepared in Example 26 was subjected to an in vivo test as follows. […] Here, gabapentin was used as a control.
# mGluR5 [5] = molecular target: T1, mGluR5; assay: Assay for m-GluR5 activity using FDSS6000 (calcium mobilization by L-glutamate in mGluR5/HEK293 cells); format: cell-based; conditions: HEK293, L-glutamate 10 uM, HEK cells expressing m-GluR5, read-out: % Inhibition rate (mGluR5)
# Method: Inhibitory activity (%) of the compound represented by Formula 1 on calcium mobilization developed at a high concentration of glutamate in mGluR5/HEK293 cells was measured by using a high throughput FDSS6000.
# After HEK cells stably expressing m-GluR5 (Human embryonic kidney cell line; m-GluR5: Yonsei University) were prepared at a density of 4×10^4/Ml per well, aliquots of 100 μl from the cell suspension were distributed evenly into a 96-well plate and incubated for 18 hr at 37° C., 5% CO2. The well plate was washed with a HBSS buffer to remove the culture medium, and reacted with a HBSS buffer containing a Ca^2+ fluorescent dye (FLIPR Calcium 5 assay kit: Molecular Devices) for 30 min at 37° C., 5% CO2, thereby labeling with the fluorescent dye. Separately from the 96-well plate including the cells, another 96-well plate including L-glutamate (final concentration: 10 uM) capable of activating m-GluR5 and a blacking agent was prepared. Since most of cell-based HTS devices are equipped with a liquid application system for injection of a drug, but have no liquid sucking system, the blocking agent to be tested and L-glutamate were respectively provided at a 6-fold higher concentration in a HBSS buffer at the amount of 25 μl, diluted by six-times at the final cell plate volume of 150 μl, and then used in this assay. Briefly, the FDSS6000 assay was carried out by recording a reference level of 20 sec, pre-treating with a blocking agent for 75 sec, and then measuring the change in intracellular calcium level depending on the administration of L-glutamate. After the area of a 480/520 ratio value in a control without treatment of a test drug was set to 100%, an inhibitory effect of the test drug was calculated as a percentage (%) thereon.
# For accurate calcium imaging, the light source of 4 xenon lamps in FDSS6000 were radiated to selectively expose the cells to the excitation wavelength (480 nm) by a computer-controlled filter wheel. Data were obtained at intervals of 1.23 sec. The emitter fluorescence light inflowed through a 520 nm long-pass filter was obtained as an average 480/520 ratio value for each well in the 96-wells by using a CCD camera and a digital fluorescence analyzer in FDSS6000. All image data and analyses were obtained by using a FDSS6000-exclusive program from Hamamatsu Photonics.
# T1 sequence (P41594 21-1212): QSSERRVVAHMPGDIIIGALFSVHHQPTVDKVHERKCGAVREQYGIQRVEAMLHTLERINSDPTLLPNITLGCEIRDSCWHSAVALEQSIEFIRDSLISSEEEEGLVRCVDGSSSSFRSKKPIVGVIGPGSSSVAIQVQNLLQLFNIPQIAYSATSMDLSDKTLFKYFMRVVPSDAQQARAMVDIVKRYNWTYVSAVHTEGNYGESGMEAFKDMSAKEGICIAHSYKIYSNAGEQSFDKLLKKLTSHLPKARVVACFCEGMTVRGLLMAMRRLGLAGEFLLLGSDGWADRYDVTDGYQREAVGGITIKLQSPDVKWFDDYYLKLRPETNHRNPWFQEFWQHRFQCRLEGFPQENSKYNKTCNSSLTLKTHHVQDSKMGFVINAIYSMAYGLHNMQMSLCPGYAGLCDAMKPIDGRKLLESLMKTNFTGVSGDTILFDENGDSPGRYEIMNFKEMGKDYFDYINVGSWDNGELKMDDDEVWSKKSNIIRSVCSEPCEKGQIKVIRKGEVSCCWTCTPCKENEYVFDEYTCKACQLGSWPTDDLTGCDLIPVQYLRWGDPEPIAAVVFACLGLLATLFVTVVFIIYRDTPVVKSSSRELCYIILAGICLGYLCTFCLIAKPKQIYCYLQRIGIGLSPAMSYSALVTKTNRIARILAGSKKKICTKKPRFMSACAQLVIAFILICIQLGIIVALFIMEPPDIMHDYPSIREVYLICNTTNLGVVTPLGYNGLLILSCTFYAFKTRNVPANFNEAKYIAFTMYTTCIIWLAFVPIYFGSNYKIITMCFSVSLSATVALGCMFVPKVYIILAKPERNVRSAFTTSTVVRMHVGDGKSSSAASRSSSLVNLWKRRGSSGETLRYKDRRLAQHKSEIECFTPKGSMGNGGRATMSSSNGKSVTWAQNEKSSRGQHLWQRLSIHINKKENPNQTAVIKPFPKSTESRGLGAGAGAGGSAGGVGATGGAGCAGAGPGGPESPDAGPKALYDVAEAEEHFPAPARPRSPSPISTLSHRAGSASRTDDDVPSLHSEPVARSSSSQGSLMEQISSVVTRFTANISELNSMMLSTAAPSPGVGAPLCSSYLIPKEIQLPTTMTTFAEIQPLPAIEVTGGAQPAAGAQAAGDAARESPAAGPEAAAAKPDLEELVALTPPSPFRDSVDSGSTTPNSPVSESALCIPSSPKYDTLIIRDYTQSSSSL
compound,measurement,setting,value
"C(#Cc1ccc2ccccc2n1)c1ccccn1 [Example 26, 2-(Pyridine-2-ylethynyl)quinoline]",IC50,mGluR5 [1],0.94 ± 0.25 µM
same,CL,[2]; intravenous injection (n=4),84.93 (±8.98) mL/min/kg
same,T1/2,[2]; intravenous injection (n=4),58.24 (±62.41) min
same,Vdss,[2]; intravenous injection (n=4),1269.02 (±158.55) mL/kg
same,F,[2]; oral administration,15.9%
same,Cmax,[2]; oral administration (n=3),0.43 (±0.18) μg/mL
same,T1/2,[2]; oral administration (n=3),48.53 (±8.06) min
same,Tmax,"[2]; oral administration (n=3), median value (range)",10 (5-30)^a min
same,CYP (% remaining @ 10 μM) CYP2C9,CYP2C9,>99%
same,CYP (% remaining @ 10 μM) CYP3A4,CYP3A4,77%
same,HLM % remaining after 30 min,[3],88%
same,IC50,hERG,20.3 ± 6.11 µM
same,CYP (% remaining @ 10 μM) CYP2D6,CYP2D6,98%
same,inhibitory effect on cold allodynia,[4],higher inhibitory effect
same,inhibition at 1 µM,mGluR5 [5]; 1 μM compound,58.8%
same,inhibition at 10 µM,mGluR5 [5]; 10 μM compound,76.7%
